Tests used:
BRM = BRM (Homo sapiens, UniProt P51531); experiment: ATPase catalytic activity assay (ADP-Glo), BRM; details: 30 nM BRM, 400 μM ATP; for IC50: BRM ATPase: IC50 (uM)
BRG-1 = BRG-1 (Homo sapiens, UniProt P51532); experiment: ATPase catalytic activity assay (ADP-Glo), BRG-1; details: for Emax: 1 h, read-out: BRG1 Max % Inhibition, ADP-Glo, 30 nM BRG-1, 400 μM ATP
BRG-1, sequence (P51532 whole entry): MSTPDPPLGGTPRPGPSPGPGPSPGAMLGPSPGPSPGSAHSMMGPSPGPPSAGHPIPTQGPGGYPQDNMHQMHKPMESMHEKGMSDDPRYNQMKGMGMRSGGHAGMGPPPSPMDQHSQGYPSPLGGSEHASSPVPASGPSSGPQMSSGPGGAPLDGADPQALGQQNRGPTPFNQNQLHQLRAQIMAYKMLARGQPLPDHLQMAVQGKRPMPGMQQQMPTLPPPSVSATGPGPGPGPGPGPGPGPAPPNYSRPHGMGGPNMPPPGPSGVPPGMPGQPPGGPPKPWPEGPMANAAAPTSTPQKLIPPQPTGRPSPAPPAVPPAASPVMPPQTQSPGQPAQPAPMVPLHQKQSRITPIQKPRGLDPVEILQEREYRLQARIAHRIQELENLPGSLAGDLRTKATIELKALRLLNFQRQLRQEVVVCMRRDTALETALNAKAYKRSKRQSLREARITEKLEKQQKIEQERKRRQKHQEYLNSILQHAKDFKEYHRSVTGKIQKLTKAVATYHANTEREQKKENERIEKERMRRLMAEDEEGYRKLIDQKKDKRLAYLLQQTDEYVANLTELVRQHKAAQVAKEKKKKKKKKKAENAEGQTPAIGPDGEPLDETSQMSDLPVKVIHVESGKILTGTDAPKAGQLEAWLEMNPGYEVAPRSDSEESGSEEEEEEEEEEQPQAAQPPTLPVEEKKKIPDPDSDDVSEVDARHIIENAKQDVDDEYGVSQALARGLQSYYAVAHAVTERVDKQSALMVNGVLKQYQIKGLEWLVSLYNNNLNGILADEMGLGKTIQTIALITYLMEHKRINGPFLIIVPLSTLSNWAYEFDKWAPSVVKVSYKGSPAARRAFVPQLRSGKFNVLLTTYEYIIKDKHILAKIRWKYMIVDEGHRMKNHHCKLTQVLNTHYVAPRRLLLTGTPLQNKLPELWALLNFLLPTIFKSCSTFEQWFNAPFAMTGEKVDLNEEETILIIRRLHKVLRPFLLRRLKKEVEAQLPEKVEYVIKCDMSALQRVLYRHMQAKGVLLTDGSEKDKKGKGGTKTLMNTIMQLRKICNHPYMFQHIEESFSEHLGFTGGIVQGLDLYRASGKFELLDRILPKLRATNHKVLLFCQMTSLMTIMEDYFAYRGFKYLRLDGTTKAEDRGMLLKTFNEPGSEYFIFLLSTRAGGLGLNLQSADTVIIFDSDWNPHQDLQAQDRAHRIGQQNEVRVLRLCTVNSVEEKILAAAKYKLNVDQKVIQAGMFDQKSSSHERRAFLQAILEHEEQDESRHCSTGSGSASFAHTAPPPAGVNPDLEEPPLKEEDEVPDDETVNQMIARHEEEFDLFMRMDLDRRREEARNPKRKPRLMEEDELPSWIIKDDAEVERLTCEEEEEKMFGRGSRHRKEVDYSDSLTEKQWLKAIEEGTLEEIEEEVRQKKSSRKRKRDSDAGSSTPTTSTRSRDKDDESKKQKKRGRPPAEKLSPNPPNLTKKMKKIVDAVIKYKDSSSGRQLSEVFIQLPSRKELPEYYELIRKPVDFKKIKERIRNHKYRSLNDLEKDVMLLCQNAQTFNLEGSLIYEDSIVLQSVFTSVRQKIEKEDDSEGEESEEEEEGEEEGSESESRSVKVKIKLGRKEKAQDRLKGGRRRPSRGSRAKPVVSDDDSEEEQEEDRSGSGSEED

BRM, sequence (P51531 whole entry): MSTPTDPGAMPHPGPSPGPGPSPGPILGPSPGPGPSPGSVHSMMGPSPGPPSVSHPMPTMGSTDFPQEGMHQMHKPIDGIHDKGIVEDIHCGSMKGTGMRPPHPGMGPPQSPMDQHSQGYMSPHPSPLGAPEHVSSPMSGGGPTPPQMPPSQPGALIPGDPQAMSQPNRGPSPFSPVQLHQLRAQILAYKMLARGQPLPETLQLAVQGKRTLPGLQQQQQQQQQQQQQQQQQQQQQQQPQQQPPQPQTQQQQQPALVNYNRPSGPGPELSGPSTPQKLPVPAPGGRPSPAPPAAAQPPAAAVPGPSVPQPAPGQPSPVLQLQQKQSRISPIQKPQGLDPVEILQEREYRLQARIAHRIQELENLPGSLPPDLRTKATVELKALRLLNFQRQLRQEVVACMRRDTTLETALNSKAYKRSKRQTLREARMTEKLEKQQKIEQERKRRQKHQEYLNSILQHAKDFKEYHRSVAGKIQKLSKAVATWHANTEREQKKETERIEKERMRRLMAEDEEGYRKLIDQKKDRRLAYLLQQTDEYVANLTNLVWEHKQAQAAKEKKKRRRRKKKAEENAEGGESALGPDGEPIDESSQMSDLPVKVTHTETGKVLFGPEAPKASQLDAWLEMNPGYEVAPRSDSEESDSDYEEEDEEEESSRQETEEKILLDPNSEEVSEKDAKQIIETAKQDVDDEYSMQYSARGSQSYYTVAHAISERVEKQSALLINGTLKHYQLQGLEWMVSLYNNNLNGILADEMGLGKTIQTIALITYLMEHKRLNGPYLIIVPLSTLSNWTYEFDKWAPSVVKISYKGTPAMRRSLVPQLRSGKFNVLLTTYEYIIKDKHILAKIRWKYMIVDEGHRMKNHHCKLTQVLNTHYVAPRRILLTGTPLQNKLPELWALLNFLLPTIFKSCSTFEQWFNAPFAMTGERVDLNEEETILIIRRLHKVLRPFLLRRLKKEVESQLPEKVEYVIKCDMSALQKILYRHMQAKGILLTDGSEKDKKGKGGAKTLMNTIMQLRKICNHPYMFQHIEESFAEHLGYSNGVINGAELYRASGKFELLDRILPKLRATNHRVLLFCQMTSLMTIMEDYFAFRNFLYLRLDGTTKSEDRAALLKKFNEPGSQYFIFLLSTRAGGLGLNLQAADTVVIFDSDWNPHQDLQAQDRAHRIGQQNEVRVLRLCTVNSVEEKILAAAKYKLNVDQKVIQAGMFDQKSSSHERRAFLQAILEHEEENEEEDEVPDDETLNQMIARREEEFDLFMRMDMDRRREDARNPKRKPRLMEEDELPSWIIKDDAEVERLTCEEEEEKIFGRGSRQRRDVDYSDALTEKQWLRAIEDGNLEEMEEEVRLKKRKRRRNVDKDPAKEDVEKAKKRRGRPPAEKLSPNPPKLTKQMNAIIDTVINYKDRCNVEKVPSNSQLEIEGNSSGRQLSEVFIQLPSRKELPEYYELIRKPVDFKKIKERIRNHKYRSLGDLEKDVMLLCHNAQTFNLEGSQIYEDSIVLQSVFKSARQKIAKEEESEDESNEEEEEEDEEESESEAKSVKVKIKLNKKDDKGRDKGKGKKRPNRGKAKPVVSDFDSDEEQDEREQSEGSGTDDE

Structure (SMILES)	BRM Max % Inhibition (BRM)	IC50 (BRM)	IC50 (BRG-1)	Emax (BRG-1)
C[C@@]1(C#N)COCc2ccc(C(=O)NCc3cc4nc(-c5cnc(N6CCC6)cn5)ccc4cn3)cc21 [Compound 414]	91%	0.1 to 0.5 µM	500 to 1000 nM	67%
C[C@@]1(C#N)COCc2ccc(C(=O)NCc3cc4nc(-c5cncc(N6CCCC6)n5)ccc4cn3)cc21 [Compound 415]	99%	< 0.1 µM	< 100 nM	95%
C[C@@]1(C#N)COCc2ccc(C(=O)NCc3cc4nc(-c5ccnc(N6CCOCC6)n5)ccc4cn3)cc21 [Compound 416]	99%	< 0.1 µM	100 to 500 nM	95%
C[C@@]1(C#N)COCc2ccc(C(=O)NCc3cc4nc(-c5ccnc(C6CC6)n5)ccc4cn3)cc21 [Compound 417]	97%	< 0.1 µM	100 to 500 nM	91%
COC1(c2cccc(-c3ccc4cnc(CNC(=O)c5ccc6c(c5)[C@](C)(C#N)COC6)cc4n3)c2)COC1 [Compound 418]	90%	0.1 to 0.5 µM	> 1000 nM	51%
COC1(c2cccc(-c3ccc4cnc(CNC(=O)c5ccc6c(c5)[C@](C)(C#N)COC6)cc4n3)n2)COC1 [Compound 419]	93%	0.1 to 0.5 µM	500 to 1000 nM	64%
C[C@@]1(C#N)COCc2ccc(C(=O)NCc3cc4nc(-c5ccnc(C6CCC6)n5)ccc4cn3)cc21 [Compound 420]	98%	< 0.1 µM	100 to 500 nM	89%
CN1CC(c2cccc(-c3ccc4cnc(CNC(=O)c5ccc6c(c5)[C@](C)(C#N)COC6)cc4n3)c2)C1 [Compound 421]	84%	0.1 to 0.5 µM	> 1000 nM	37%
COC1CCN(c2nccc(-c3ccc4cnc(CNC(=O)c5ccc6c(c5)[C@](C)(C#N)COC6)cc4n3)n2)C1 (stereo partly drawn) [Compound 422]	99%	< 0.1 µM	< 100 nM	97%
COc1cncc(-c2ccc3cnc(CNC(=O)c4ccc5c(c4)[C@](C)(C#N)COC5)cc3n2)n1 [Compound 423]	98%	< 0.1 µM	100 to 500 nM	89%

Other lines, results leading:

BRM Max % Inhibition (BRM)	IC50 (BRM)	IC50 (BRG-1)	Emax (BRG-1)	Structure (SMILES)
99%	< 0.1 µM	< 100 nM	96%	CN(C)c1nccc(-c2ccc3cnc(CNC(=O)c4ccc5c(c4)[C@](C)(C#N)COC5)cc3n2)n1 [Compound 424]
98%	< 0.1 µM	100 to 500 nM	93%	C[C@@]1(C#N)COCc2ccc(C(=O)NCc3cc4nc(-n5cc(F)c(N6CCC6)n5)ccc4cn3)cc21 [Compound 425]
97%	0.1 to 0.5 µM	500 to 1000 nM	78%	C[C@@]1(C#N)COCc2ccc(C(=O)NCc3cc4nc(-n5ccc(N6CCC6)n5)ccc4cn3)cc21 [Compound 426]
99%	< 0.1 µM	100 to 500 nM	87%	CN1Cc2nc(-c3ccc4cnc(CNC(=O)c5ccc6c(c5)[C@](C)(C#N)COC6)cc4n3)ccc2C1=O [Compound 427]
97%	0.1 to 0.5 µM	500 to 1000 nM	65%	C[C@@]1(F)COCc2c(F)cc(C(=O)NCc3cc4nc(-c5ccccc5)ccc4cn3)cc21 [Compound 428]
99%	< 0.1 µM	100 to 500 nM	93%	C[C@@]1(F)COCc2ccc(C(=O)NCc3cc4nc(-c5ccnc(N6CCC6)n5)ccc4cn3)cc21 [Compound 429]
100%	< 0.1 µM	100 to 500 nM	92%	COC1CN(c2nccc(-c3ccc4cnc(CNC(=O)c5ccc6c(c5)[C@](C)(C#N)COC6)cc4n3)n2)C1 [Compound 430]
86%	0.1 to 0.5 µM	500 to 1000 nM	53%	C[C@@]1(C#N)COCc2ccc(C(=O)NCc3cc4nc(-c5ccccc5OCCO)ccc4cn3)cc21 [Compound 431]
98%	< 0.1 µM	100 to 500 nM	88%	COc1nccc(-c2ccc3cnc(CNC(=O)c4ccc5c(c4)[C@](C)(C#N)COC5)cc3n2)c1F [Compound 432]
96%	0.1 to 0.5 µM	500 to 1000 nM	59%	Cc1nn(-c2ccc3cnc(CNC(=O)c4ccc5c(c4)[C@](C)(C#N)COC5)cc3n2)cc1F [Compound 433]
100%	< 0.1 µM	< 100 nM	92%	Cn1ccc2c(F)cc(-c3ccc4cnc(CNC(=O)c5ccc6c(c5)[C@](C)(C#N)COC6)cc4n3)cc2c1=O [Compound 434]
